The results in this text go back to US8637038B2, “Methods for inhibiting allograft rejection” (Rigel Pharmaceuticals, Inc., priority 2011, dated 2014).

The test system of one test is JAK2. As to the kind of experiment: EPO-dependent survival of cultured human erythroid progenitor cells (CHEP). The format is cell-based. To be noted: for EC50: Homo sapiens, Erythroid progenitor cell, read-out: EPO CHEP Survival EC50. The protocol:
(§1) The erythropoietin (EPO)-dependent survival of cultured human erythroid progenitor cells (CHEPs) was determined using CellTiter-Glo® Luminescent Cell Viability Assay (Promega). Human primary T cell activation was assessed by measuring IL-2 production by ELISA (R&D Systems, Minneapolis, Minn., USA) following plate-bound anti-CD3 and anti-CD28 stimulation (Anti-Human CD3; BD Biosciences; Anti-Human CD28; Immunotech; Prague, Czech Republic). The enzymatic activity of tryptase released by human cultured mast cells (CHMCs) upon stimulation with IgE was quantified by cleavage of the synthetic fluorescent peptide substrate Z-Ala-Lys-Arg-7-amino-4-methylcoumarin (MP Biomedicals, Solon, Ohio, USA) in tryptase buffer. B-cell receptor-dependent Erk phosphorylation was measured in Ramos cells by intracellular FACS (anti-pT202/pY204-ERK1/2-AlexaFluor488; BD Biosciences). Cell proliferation assays were performed using A549 epithelial cells and H1299 lung carcinoma cells using nuclear staining to measure cell numbers (4′6-diamidino-2-phenylindole, dihydrochloride (DAPI; Invitrogen, Darmstadt, Germany)).

The next test concerns Syk. As to the kind of experiment: Anti-IgM Ramos phospho-Erk. The format is cell-based. To be noted: Homo sapiens, read-out: Anti-IgM Ramos phospho-Erk EC50. The protocol: as §1
The test system of test [1] is Syk, Lck, ZAP-70, VEGFR, INSR, EGFR and serine threonine kinases. As to the kind of experiment: Panel of cell-based assays against non-JAK kinase targets. The protocol: as §1, with “Cell proliferation assays were performed using A549 epithelial cells and H1299 lung carcinoma cells using nuclear staining to measure cell numbers (4′6-diamidino-2-phenylindole, dihydrochloride (DAPI; Invitrogen, Darmstadt, Germany)).” left out
Growth factor-dependent protein phosphorylation was detected in HeLa cells by staining permeabilized cells with phospho-specific antibodies and quantified by chemiluminescence (Luminator, Wallac Multilabel Counter; Perkin Elmer). […] Human umbilical vein endothelial cells (HUVECs) were stimulated with VEGF and VEGFR2 phosphorylation was assessed by ELISA (100 ng/ml VEGF165, R&D Systems; Rabbit anti-phospho-VEGFR2 mAb, Cell Signaling Technology). […]

The test system of test [2] is Lew recipients of heterotopic BN heart transplants. As to the kind of experiment: Five-day heart allograft study: H+E histology, ISHLT rejection classification. The format is in vivo, rat. To be noted: HD (Compound I 60 mg/kg BID, Compound III 20 mg/kg BID, Tac 4 mg/kg QD); five days after transplantation. The source says:
Male Brown Norway (BN) and Lewis (Lew) rats weighing 350 g were purchased from Harlan (Indianapolis, Ind.) and were housed under conventional conditions. All animals were fed standard rat chow and water ad libitum and received humane care in compliance with the Principles of Laboratory Animal Care formulated by the National Society for Medical Research and the Guide for the care and Use of Laboratory Animals published by the National Institutes of Health (National Institutes of Health publication No. 85-23, revised 1985). Allogeneic (BN-to-Lew) and syngeneic (Lew-to-Lew) heterotopic heart transplantations were performed as described previously (Ono et al., J. Thorac. Cardiovasc. Surg. 57:225-229, 1969). In brief, rats were anaesthetized using 2% isoflurane. The donor received an intravenous bolus of 500 I.U. heparin. Cardiac arrest was achieved using 20 ml Bretschneider solution (Custodiol, Dr. F. Koehler Chemie, Bensheim, Germany). […] Heart-beating score was assessed directly after transplantation for each animal from score 0 (no palpable contraction) to 4 (strong and regular contraction). Only animals with beating scores of 4 were included into the study. Compound I and Compound III were provided by Rigel (South San Francisco, Calif.) and Tacrolimus was provided by Astellas (Munich, Germany). All drugs were administrated orally each in two different concentrations: Compound I LD (15 mg/kg BID; n=6) and HD (60 mg/kg BID; n=6); […] Administration of all drugs was performed every day at the same time points. Tacrolimus was applied only once a day (QD) every 24 hours. During administration of Compound I (BID) and Compound III (BID) a 12 hour pause was kept in between each drug application. Lew recipients of heterotopic BN heart transplants were randomly assigned to their group. […] An untreated syngeneic transplant group Lew-Lew was generated as control. Grafts were recovered five days after transplantation and fixed in 4% paraformaldehyde (Science Services, Munich, Germany), dehydrated and embedded in paraffin. […] Waldeck, Carl Roth GmbH, Munster, Germany) and examined by standard light microscopy. The extent of acute cardiac graft rejection in H+E staining was examined by an experienced pathologist according to the 2004 ISHLT working formulation (Stewart et al., J. Heart Lung Transplant. 24:1710-1720, 2005).

Test [3] has the same test system. The experiment in a line: Five-day heart allograft study: donor-specific IgM antibodies by flow cytometry. To be noted: LD and HD groups; five days; p<0.001. The format is in vivo, rat. The protocol: Compound I and Compound III were provided by Rigel (South San Francisco, Calif.) and Tacrolimus was provided by Astellas (Munich, Germany). All drugs were administrated orally each in two different concentrations: Compound I LD (15 mg/kg BID; n=6) and HD (60 mg/kg BID; n=6); Compound III LD (5 mg/kg BID; n=6) and HD (20 mg/kg BID; n=6); Tac LD (1 mg/kg QD; n=6) and HD (4 mg/kg QD; n=6). Administration of all drugs was performed every day at the same time points. Tacrolimus was applied only once a day (QD) every 24 hours. During administration of Compound I (BID) and Compound III (BID) a 12 hour pause was kept in between each drug application.
Lew recipients of heterotopic BN heart transplants were randomly assigned to their group. Animals were either left untreated (groups 1 and 2; see Table 1,5-day study) or received their group specific medication (groups 3-8; see Table 1,5-day study) by oral application. An untreated syngeneic transplant group Lew-Lew was generated as control.
Donor splenocytes were isolated and erythrocytes were lysed using the ACK buffer (Lonza, Walkersville, Md.). Sera from recipient rats were decomplemented and equal amounts of sera and splenocyte suspensions (5×10^6 cells/ml) were incubated for 30 minutes at room temperature. IgM antibodies were stained by incubation of the cells with a conjugated mouse antibody specific for the Fc-portion of rat IgM (Monoclonal Anti-rat IGM, Clone RTM-32, Sigma) followed by incubation with a 488-conjugated secondary antibody (Invitrogen). Cells were washed with PBS, fixed with 2% paraformaldehyde (Science Services), and analyzed on a FACSCalibur™ system (BD Biosciences). Fluorescence data were expressed as mean fluorescence intensity (MFI) using Flowjo software (Tree Star, Inc., Ashland, Oreg.).

Structures are written as SMILES. Where two headings read alike, the source gives them in different places.

By EC50 is commonly meant the concentration giving half of the maximal effect. Turning to `COc1cc(Nc2ncc(C)c(Nc3ccc4oc(=O)[nH]c4c3)n2)cc(C)c1C` [Compound III, 5-(2-(3-methoxy-4,5-dimethylphenylamino)-5-methylpyrimidin-4-ylamino)benzol[d]oxazol-2-(3H)-one], in the test on JAK2, the “inhibition of JAK2-dependent CHEP differentiation and survival in response to EPO” value is on record as “limited inhibition”; the EC50 was 1110 ± 339 nM. Besides, in the test with Syk, the EC50 came out at 1280 ± 190 nM. In addition, the “inhibition of other (non-JAK) kinase targets in cells” value in test [1] is on record as “very limited inhibition”. Besides, in test [2], the “hearts with ISHLT score of 0” value is 33%, the “hearts with ISHLT score of 1” value was found to be 50%, the “hearts with ISHLT score of 2” value is reported as 17% and the “hearts with ISHLT score of 3” value is recorded as “no scores of 3”. Also, in test [3], the “donor-specific IgM antibodies (DSA) vs. no medication” value is “significant suppression”.

As for `COc1cc(Nc2ncc(C)c(Nc3ccc4oc(=O)[nH]c4c3)n2)cc(C)c1F` [Compound I, 5-(2-(4-fluoro-3-methoxy-5-methylphenylamino)-5-methylpyrimidin-4-ylamino)benzo[d]oxazol-2(3H)-one], in the test on JAK2, the “inhibition of JAK2-dependent CHEP differentiation and survival in response to EPO” value is recorded as “limited inhibition”. In addition, in the test on JAK2 (upstream kinase JAK2), the EC50 was 490 ± 246 nM. Moreover, the EC50 in the test with Syk (upstream kinase Syk) was 1440 ± 586 nM. In addition, the “inhibition of other (non-JAK) kinase targets in cells” value in test [1] is “very limited inhibition”. In addition, in test [2], the “hearts with ISHLT score of 0” value amounted to 17%, the “hearts with ISHLT score of 1” value worked out at 50%, the “hearts with ISHLT score of 2” value turned out to be 17% and the “hearts with ISHLT score of 3” value was 17%. The “donor-specific IgM antibodies (DSA) vs. no medication” value in test [3] is given as “significant suppression”.
